From US6608086B2, “Dihydropyridines and new uses thereof” (Synaptic Pharmaceutical Corporation, priority 1993, dated 2003)
Where a name gives a salt, the structure may show the parent alone.

Experiments:
canine prostate = test: In vivo dog prostate model: inhibition of phenylephrine-induced increase in urethral pressure in anesthetized dogs
Description: Protocol for In Vivo Evaluation of Compounds in Canine Prostate
Adult male mongrel dogs more than one year of age were chosen for the model. After induction of general anesthesia using sodium pentobarbital (25 mg/Kg i.v.), the animals were intubated and allowed to breathe spontaneously. An arterial catheter was inserted via the femoral artery to monitor blood pressure and i.v. line was inserted into the leg for fluid and drug administration. A constant saline infusion was maintained at 40 to 50 mL/h. Next, a seven cm lower abdominal incision was made one cm lateral to the penis.
The bladder, prostate and a short segment of urethra were identified and isolated, without damage to the nerves or blood vessels. A cystotomy incision was made through which the pressure catheter was inserted and positioned in the prostatic urethra. The cystotomy was not closed, but the wound edges were sutured to stop bleeding. The tip of the catheter was positioned just distal to the prostate and secured in place with an O-silk tie around the urethra. A second holding suture at the bladder neck secured the catheter in place.
Fluid, either water or saline, was pumped by a Harvard infusion pump at 0.1 mL/min through a Gould pressure transducer into the catheter. The fluid exists at a port in the catheter which is in the prostatic urethra. Occlusion of the port, by contraction of the prostate, blocks the flow and a pressure wave is created. This pressure is transmitted back through the catheter to the transducer which is attached to a Gould recorder. Squeezing the prostate gland caused an increase in urethral pressure which verified the correct position in the urethra.
The compounds were tested as follows: A dose response curve was first generated for phenylephrine alone, in doses ranging from one μg/Kg to 50 μg/Kg. The absolute rise in urethral pressure was recorded for each dose and the next dose given when the urethral pressure returned to baseline. Phenylephrine dose response curves were generated in all animals tested. Increasing doses of compounds were then given, and the phenylephrine dose response curve repeated in the prepense of each dose of the compound. No animal received more than one compound; four animals were used to test each compound. To test for tachyphylaxis, four separate dogs were challenged with repeated phenylephrine doses for six hrs, the usual length of each experiment. From the dose-effect data, the inhibition constant (Ki) and the median-effect dose (ED50) were calculated. Both the Ki and ED50 values given are calculated by using microcomputer software and an IBM-PC.

human prostatic tissue = test: In vitro human prostate model: block of phenylephrine-induced contraction of human prostatic tissue; format: cell-based
From the text: The protocol for these experiments is given below.
Functional Properties of α1 Antagonists in the Human Prostate
The efficacy of α1 adrenergic antagonists for the treatment of benign prostatic hyperplasia (BPH) is related to their ability to elicit relaxation of prostate smooth muscle. An index of this efficacy can be obtained by determining the potency of al antagonists to antagonize the contraction of human prostatic tissue induced by an α1 agonist “in vitro”. Furthermore, by comparing the potency of subtype selective α1 antagonists in binding assays using human α1 receptors with their potency to inhibit agonist-induced smooth muscle contraction, it is possible to determine which of the α1 adrenergic receptor subtypes is involved in the contraction of prostate smooth muscle.
Prostatic adenomas were obtained at the time of surgery from patients with symptomatic BPH. […] The baths were maintained at 37° C. and continuously oxygenated with 5% CO2 and 95% O2. Isometric tension was measured with a Grass Instrument FT03 force transducer interfaced with a computer. Tissue strips were contracted with varying concentrations of phenylephrine after incubating for 20 minutes in the absence and presence of at least three different concentrations of antagonist. Dose-response curves for phenylephrine were constructed, and the antagonist potency (pA2) was estimated by the dose-ratio method. The concentration of some antagonists in the tissue bath was assessed by measuring the displacement of [3H]prazosin by aliquots of the bath medium, using membrane preparations of the cloned human α1C receptor. This control was necessary to account for losses of antagonist due to adsorption to the tissue bath and/or metabolism during the time the antagonists were equilibrated with the prostate tissue.

pKi (human prostatic tissue; In Vitro Human Prostate Model, phenylephrine-induced contraction) | Structure (SMILES) | Ki (canine prostate; In Vivo Dog Prostate Model, phenylephrine-induced contraction, urethral pressure) [nmol/kg] | Urethral Pressure K i (canine prostate; inhibition of phenylephrine-induced increases in urethral pressure, anesthetized dogs) [nmol/kg] | pA2 (human prostatic tissue; block of phenylephrine-induced contraction of human prostate)
8.07 ± 0.13 | COC(=O)C1=C(C)NC(C)=C(C(=O)NCCCN2CCC(c3ccccc3)CC2)C1c1ccc([N+](=O)[O-])cc1 (racemic) [(±)-45, (±)-1,4-Dihydro-3-methoxycarbonyl-2,6-dimethyl-4-(4-nitrophenyl)-5-{N-[3-(4-phenylpiperidin-1-yl)propyl]}carboxamidopyridine hydrochloride hemihydrate] | 12 |  | 
 | CNC(=O)C1=C(C)NC(C)=C(C(=O)NCCCN2CCC(c3ccccc3)(c3ccccc3)CC2)C1c1ccc([N+](=O)[O-])cc1 (stereo not shown) [Example 38, 1,4-Dihydro-2,6-dimethyl-5-(N-methyl)carboxamido-4-(4-nitrophenyl)-3-{N-[3-(4,4-diphenylpiperidin-1-yl)propyl]}carboxamidopyridine] |  | 8 ± 1.5 | 8.98 ± 0.06
